Data published in patent US9126973B2, “Multiheteroaryl compounds as inhibitors of H-PGDS and their use for treating prostaglandin D2 mediated diseases” (Cayman Chemical Company, Incorporated, priority 2008, dated 2015).

Columns and labels:
[1] = target: T1, H-PGDS (Homo sapiens (Human), UniProt O60760); test: H-PGDS Fluorescence Polarization Binding Assay (FPBA); settings: H-PGDS-MBP fusion enzyme, fluorescent probe, reduced glutathione 5 mM, 60-90 minutes at room temperature, 96-well format
Description: H-PGDS Fluorescence Polarization Binding Assay This assay essentially is available from Cayman Chemical Company as Catalog item #600007. The test data reported for the aforementioned Examples (H-PGDS FPBA IC50) were generated using a 96-well, instead of the 384-well, format. […] Assays were performed in 96-well microtiter plates in 100 μL of total sample volume. Excitation and emission wavelengths appropriate for the employed detection analyte were used. […] Twelve clean microfuge tubes were labeled A1 through A12. […] Dimethyl sulfoxide (50 μL) was added to each of tubes A1 through A11. The HQL-79 control solution was serially diluted by removing 50 μL from tube A12 and placing it in tube A11 with subsequent thorough mixing of the contents of tube A11. Next, 50 μL was removed from tube A11 and was placed into tube A10 with subsequent thorough mixing of the contents of tube A10. This process was repeated for tubes A9 through A2. […] A test compound may be dissolved in DMSO, ethanol, or methanol at several concentrations when the titration endpoint is unknown. […] Assay cocktail (95 μL) was added to each plate well. DMSO (5 μL) from microfuge tube A1 was added to each plate well A1 and B1. Positive control solution (5 μL) from microfuge tube A2 was added to each plate well A2 and B2. Positive control solution (5 μL) from microfuge tube A3 was added to each plate well A3 and B3. This procedure was continued until all the positive control standard dilutions were aliquoted. Test compound solutions (5 μL) were added to the wells. […] The IC50 for a particular test compound was obtained by performing a full concentration titration versus a full concentration titration of positive control. Comparison of a single concentration of a test compound to the maximum binding well provided an assessment of the relative affinity of the test compound for H-PGDS-MBP. The plate was covered and incubated for 60-90 minutes at room temperature. The FP signal is stable for at least two hours. […] The measurements were taken in the fluorescent polarization mode with the z-height set to the middle of the well and the G-factor set to 1.13 on a Tecan Safire 2 reader.

[2] = target: T1, H-PGDS; test: H-PGDS Inhibitor Enzyme Immunoassay (EIA); assay type: biochemical; settings: 25 ng H-PGDS, 40 μM PGH2, 1 mM GSH; PGD2 quantified by EIA
Description: H-PGDS Inhibitor Enzyme Immunoassay
The assay detects and measures PGD2 generated by H-PGDS. The prostanoid product is quantified via enzyme immunoassay (EIA) using a specific PGD2 antibody.
The assay is carried out by the following steps: • 1. Inhibitor screening is performed in 100 mM Tris-HCl, pH 8.0 containing 1 mM GSH, 1 mM MgCl2, 4% inhibitor/DMSO, 40 μM PGH2 and 25 ng of PGDS in a total volume of 125 μL. • 2. A reaction mixture containing 100 mM Tris-HCl, pH 8.0, 1 mM GSH, 1 mM MgCl2, 25 ng H-PGDS and 4% inhibitor or DMSO (uninhibited reaction) is preincubated at 25° C. for 10 minutes. • 3. Reactions are initiated using 5 μL of PGH2 and quenched every 15 seconds for one minute. Reactions are quenched by taking 10 μL of reaction mixture and adding to 490 μL of 100 mM phosphate buffer containing 0.1% BSA, 400 mM NaCl, 1 mM EDTA, 20 mM FeCl2, 10% 1N HCl, and 0.01% azide to prevent the non-enzymatic formation of PGD2 from PGH2. The FeCl2 serves the purpose of reducing PGH2 to 12-HHT. (Quench buffer is kept on ice at all times). • 4. Quenched samples (5 μL) are further diluted 100 fold in 495 μL of 100 mM phosphate buffer containing 0.1% BSA, 400 mM NaCl, 1 mM EDTA, and 0.01% azide for the PGD2 EIA assay. (Dilution buffers are kept on ice at all times).
The final 5000 fold diluted samples are analyzed following the protocol outlined in Cayman Chemical's commercially available PGD2 EIA kit (Cat. #512021). 50 μL of diluted sample is analyzed at least in duplicate in the EIA assay and the amount of PGD2 formed is quantified using a standard curve.

T1 sequence (O60760 whole entry, the tested form may be a part): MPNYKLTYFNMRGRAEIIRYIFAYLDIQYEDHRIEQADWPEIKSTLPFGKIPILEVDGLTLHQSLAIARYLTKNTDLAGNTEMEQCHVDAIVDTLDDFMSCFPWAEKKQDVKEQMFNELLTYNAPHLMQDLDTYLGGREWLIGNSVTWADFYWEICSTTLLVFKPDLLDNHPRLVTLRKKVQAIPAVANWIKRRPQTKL

SMILES | melting point [°C] | IC50 [1] [µM] | IC50 [2] [µM]
c1ccc(-c2ncc(-c3cnc(-c4ccccc4)[nH]3)cn2)cc1 [Example 1, 2-phenyl-5-(2-phenyl-1H-imidazol-5-yl)pyrimidine] | 253 | 0.25 | 0.012
c1ccc(-c2ccc(-c3cnc(-c4ccccc4)[nH]3)cn2)cc1 [Example 2, 2-phenyl-5-(2-phenyl-1H-imidazol-5-yl)pyridine] | 206 | 0.48 | 0.097
Cn1c(-c2cnc(-c3ccccc3)nc2)cnc1-c1ccccc1 [Example 3, 5-(1-methyl-2-phenyl-1H-imidazol-5-yl)-2-phenylpyrimidine] | 211 | 0.625 | 0.25
Cc1nc(-c2ccccc2)[nH]c1-c1cnc(-c2ccccc2)nc1 [Example 4, 5-(4-methyl-2-phenyl-1H-imidazol-5-yl)-2-phenylpyrimidine] | 138 | 0.45 | 0.082
Fc1cccc(-c2ncc(-c3cnc(-c4ccccc4)[nH]3)cn2)c1 [Example 6, 2-(3-fluorophenyl)-5-(2-phenyl-1H-imidazol-5-yl)pyrimidine] | 240 | 0.28 | 0.047
Fc1cccc(-c2ncc(-c3cnc(-c4ccccc4)nc3)[nH]2)c1 [Example 8, 5-(2-(3-fluorophenyl)-1H-imidazol-5-yl)-2-phenylpyrimidine] | 221 | 0.188 | 0.004
c1ccc(-c2ncc(-c3cnc(-c4ccccn4)[nH]3)cn2)cc1 [Example 9, 2-phenyl-5-(2-(pyridin-2-yl)-1H-imidazol-5-yl)pyrimidine] | 262 | 0.125 | 0.053
c1ccc(-c2ncc(-c3cnc(-c4cccnc4)[nH]3)cn2)cc1 [Example 10, 2-phenyl-5-(2-(pyridin-3-yl)-1H-imidazol-5-yl)pyrimidine] | 308 | 0.079 | 0.021
Fc1cccc(-c2ncc(-c3cnc(-c4cccnc4)[nH]3)cn2)c1 [Example 11, 2-(3-fluorophenyl)-5-(2-(pyridin-3-yl)-1H-imidazol-5yl)pyrimidine] | 309 | 0.156 | 0.041
c1ccc(-c2ncc(-c3cnc(-c4ccncc4)[nH]3)cn2)cc1 [Example 13, 2-phenyl-5-(2-(pyridin-4-yl)-1H-imidazol-5-yl)pyrimidine] | 300 | 0.125 | 0.075
c1ccc(Cc2ncc(-c3cnc(-c4ccccc4)nc3)[nH]2)cc1 [Example 14, 5-(2-benzyl-1H-imidazol-5-yl)-2-phenylpyrimidine] | 235 | 0.625 | 0.059
C(=C\c1ncc(-c2cnc(-c3ccccc3)nc2)[nH]1)/c1cccnc1 [Example 15, (E)-2-phenyl-5-(2-(2-(pyridin-3-yl)vinyl)-1H-imidazol-5-yl)pyrimidine] | 258 | 0.15 | 0.023
O=C(c1cccnc1)N1CCC(c2nc(-c3cnc(-c4ccccc4)nc3)c[nH]2)CC1 [Example 20, (4-(4-(2-phenylpyrimidin-5-yl)-1H-imidazol-2-yl)piperidin-1-yl)(pyridin-3-yl)methanone] | 234 | 0.45 | –
Cn1cncc1-c1cnc(-c2ccccc2)nc1 [Example 32, 5-(1-methyl-1H-imidazol-5-yl)-2-phenylpyrimidine] | 144 | 7.6 | –
c1ccc(Cn2cncc2-c2cnc(-c3ccccc3)nc2)cc1 [Example 33, 5-(1-benzyl-1H-imidazol-5-yl)-2-phenylpyrimidine] | 140 | 2 | –
c1ccc(Cn2cnc(-c3cnc(-c4ccccc4)nc3)c2)cc1 [Example 34, 5-(1-benzyl-1H-imidazol-4-yl)-2-phenylpyrimidine] | 195 | 4 | –

SMILES | melting point [°C] | IC50 [1] [µM] | IC50 [2] [µM]
c1ccc(Oc2ncc(-c3cnc(-c4ccccc4)[nH]3)cn2)cc1 [Example 38, 2-phenoxy-5-(2-phenyl-1H-imidazol-5-yl)pyrimidine] | 254 | 4 | –
c1ccc(Cc2ncc(-c3cnc(Oc4ccccc4)nc3)[nH]2)cc1 [Example 39, 5-(2-benzyl-1H-imidazol-4-yl)-2-phenoxypyrimidine] | 60 | 10 | –
Cl.c1ccc(-c2ncc(-c3cc[nH]n3)cn2)cc1 [Example 41, 2-phenyl-5-(1H-pyrazol-3-yl)pyrimidine hydrochloride] | 264 to 273 | 2.4 | –
c1ccc(-c2ncc(-c3ncco3)cn2)cc1 [Example 42, 2-(2-phenylpyrimidin-5-yl)oxazole] | 175 to 177 | 7.8 | –
c1ccc(-c2ncc(-c3nnn[nH]3)cn2)cc1 [Example 43, 2-phenyl-5-(1H-tetrazol-5-yl)pyrimidine] | 237 | 2.5 | –
c1ccc(-c2ncc(-c3ncc(-c4ccccc4)[nH]3)cn2)cc1 [Example 44, 2-phenyl-5-(5-phenyl-1H-imidazol-2-yl)pyrimidine] | 238 | 2.8 | –
c1ccc(-c2ncc(-c3cnc(-c4ccccc4)o3)cn2)cc1 [Example 46, 2-phenyl-5-(2-phenylpyrimidin-5-yl)oxazole] | 228 to 231 | 125 | –
c1ccc(-c2ncc(-c3csc(-c4ccccc4)n3)cn2)cc1 [Example 48, 2-phenyl-4-(2-phenylpyrimidin-5-yl)thiazole] | 214.4 to 216.1 | > 20 | –
c1ccc(-c2ncc(-c3nnc(-c4cccnc4)[nH]3)cn2)cc1 [Example 50, 2-phenyl-5-(5-(pyridin-3-yl)-1H-1,2,4-triazol-3-yl)pyrimidine] | 322 to 333 | 1 | –
CCOC(=O)c1cc(-c2cnc(Oc3ccccc3)nc2)[nH]n1 [Example 54, ethyl 5-(2-phenoxypyrimidin-5-yl)-1H-pyrazole-3-carboxylate] | – | 1.3 | 0.13
CN1CCN(C(=O)c2cc(-c3cnc(Oc4ccccc4)nc3)[nH]n2)CC1 [Example 57, (4-methylpiperazin-1-yl)(5-(2-phenoxypyrimidin-5-yl)-1H-pyrazol-3-yl)methanone] | – | 0.65 | 0.42
Fc1cccc(-c2nc(-c3cnc(-c4ccccc4)nc3)cs2)c1 [Example 58, 2-(3-fluorophenyl)-4-(2-phenylpyrimidin-5-yl)thiazole] | 228 | > 20 | –
c1ccc(Cc2nc(-c3cnc(-c4ccccc4)nc3)cs2)cc1 [Example 60, 2-benzyl-4-(2-phenylpyrimidin-5-yl)thiazole] | 170 | > 20 | –
O=C(O)C(F)(F)F.c1ccc(-c2ncc(-c3csc(C4CCNCC4)n3)cn2)cc1 [Example 61, 4-(4-(2-phenylpyrimidin-5-yl)thiazol-2-yl)piperidinium 2,2,2-trifluoroacetate] | 290 | 5 | –
COCCCNC(=O)c1csc(-c2cnc(-c3ccccc3)nc2)n1 [Example 64, N-(3-methoxypropyl)-2-(2-phenylpyrimidin-5-yl)thiazole-4-carboxamide] | 134 to 136 | 3.4 | –
